Here are results for 15 molecules from patent publication US20260234147A1 (priority 2023, published 2026).

Read-outs that look alike come from different tables or passages of the source.

For one assay, the target named is hMOR (Homo sapiens, UniProt P35372). The assay can be described thus: Radioligand binding assay (Eurofins Cerep), [3H]DAMGO displacement.
The next assay concerns the target hKOR (Homo sapiens, UniProt P41145). The assay can be described thus: Radioligand binding assay (Eurofins Cerep), [3H]U69,593 displacement.
For another assay, the target named is hDOR (Homo sapiens, UniProt P41143). The assay can be described thus: Radioligand binding assay (Eurofins Cerep), [3H]DADLE displacement.
Chain of hDOR (P41143 whole entry): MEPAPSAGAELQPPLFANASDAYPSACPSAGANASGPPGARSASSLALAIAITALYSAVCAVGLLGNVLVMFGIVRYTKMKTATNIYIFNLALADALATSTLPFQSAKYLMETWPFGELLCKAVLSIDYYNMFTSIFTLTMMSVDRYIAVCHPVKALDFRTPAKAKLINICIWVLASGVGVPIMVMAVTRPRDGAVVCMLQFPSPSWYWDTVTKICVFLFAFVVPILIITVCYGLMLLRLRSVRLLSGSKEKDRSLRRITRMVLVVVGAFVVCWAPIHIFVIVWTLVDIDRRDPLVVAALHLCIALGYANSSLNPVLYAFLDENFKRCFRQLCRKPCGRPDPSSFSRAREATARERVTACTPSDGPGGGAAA
Another assay concerns the target T1, α2A adrenergic receptor (Homo sapiens, UniProt P08913).
T1 construct: Eurofins Cerep (contract screening)
T1 sequence (P08913 1-465): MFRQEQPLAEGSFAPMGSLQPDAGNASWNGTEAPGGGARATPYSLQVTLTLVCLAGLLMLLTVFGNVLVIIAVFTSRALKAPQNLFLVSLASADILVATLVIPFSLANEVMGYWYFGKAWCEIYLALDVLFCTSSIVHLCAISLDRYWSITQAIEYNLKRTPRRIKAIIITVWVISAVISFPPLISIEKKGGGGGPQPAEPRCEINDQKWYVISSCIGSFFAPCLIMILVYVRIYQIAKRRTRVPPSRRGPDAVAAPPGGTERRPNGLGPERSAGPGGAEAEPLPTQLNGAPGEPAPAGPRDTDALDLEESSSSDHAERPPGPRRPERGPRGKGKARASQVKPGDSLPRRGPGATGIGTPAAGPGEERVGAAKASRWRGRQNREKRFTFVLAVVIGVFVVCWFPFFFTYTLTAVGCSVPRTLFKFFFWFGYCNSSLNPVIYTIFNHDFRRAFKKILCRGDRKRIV
The assay can be described thus: Radioligand binding assay (Eurofins Cerep), [3H]RX 821002 displacement.

Where [1] appears, read: Table 3-3, 3 independent experiments, read-out: Ki (nM ± SEM) MOR.
[2] abbreviates: Table 3-3, 3 independent experiments, read-out: Ki (nM ± SEM) KOR.
Setting [3] is: Table 3-3, 3 independent experiments, read-out: Ki (nM ± SEM) DOR.
The mark [4] stands for this setting: Table 3-3, 3 independent experiments, read-out: Ki (nM ± SEM) a2A-AR.
Where [5] appears, read: Table A4, data summary #2, read-out: MOR Ki ± SEM.
Setting [6] is: Table A4, data summary #2, read-out: DOR Ki ± SEM.
[7] abbreviates: Table B1′, read-out: MOR Ki ± SEM.
Where [8] appears, read: Table B1′, read-out: KOR Ki ± SEM.
Setting [9] is: Table B1′, read-out: DOR Ki ± SEM.
Where [10] appears, read: alpha2A Ki ± SEM (nM), Table B1′.
[11] abbreviates: Table B1′, read-out: alpha2A Ki ± SEM.
Where [12] appears, read: Table 3-6, 3 independent experiments, read-out: Ki (nM ± SEM) MOR.
Setting [13] is: Table 3-6, 3 independent experiments, read-out: Ki (nM ± SEM) KOR.

Chain of hKOR (P41145 whole entry): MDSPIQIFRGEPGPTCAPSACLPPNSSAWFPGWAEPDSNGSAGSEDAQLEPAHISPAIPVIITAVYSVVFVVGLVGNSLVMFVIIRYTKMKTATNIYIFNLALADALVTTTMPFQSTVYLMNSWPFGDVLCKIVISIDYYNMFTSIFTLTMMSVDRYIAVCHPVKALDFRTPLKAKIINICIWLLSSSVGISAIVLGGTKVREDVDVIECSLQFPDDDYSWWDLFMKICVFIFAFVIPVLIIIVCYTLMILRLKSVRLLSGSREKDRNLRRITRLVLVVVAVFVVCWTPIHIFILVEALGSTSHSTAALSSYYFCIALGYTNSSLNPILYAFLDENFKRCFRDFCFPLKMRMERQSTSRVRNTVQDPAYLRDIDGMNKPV
Chain of hMOR (P35372 whole entry): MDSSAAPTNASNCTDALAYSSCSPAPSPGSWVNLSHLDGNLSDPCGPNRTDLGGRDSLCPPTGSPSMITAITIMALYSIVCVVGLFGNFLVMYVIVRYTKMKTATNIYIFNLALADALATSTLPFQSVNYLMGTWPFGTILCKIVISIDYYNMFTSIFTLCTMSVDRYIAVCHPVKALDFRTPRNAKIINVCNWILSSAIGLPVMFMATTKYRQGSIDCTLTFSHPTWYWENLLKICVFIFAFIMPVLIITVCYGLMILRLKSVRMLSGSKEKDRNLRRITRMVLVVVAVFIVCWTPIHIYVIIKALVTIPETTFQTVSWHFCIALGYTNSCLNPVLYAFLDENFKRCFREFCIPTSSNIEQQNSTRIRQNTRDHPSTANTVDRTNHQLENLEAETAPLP

As usually defined, the Ki is the equilibrium dissociation constant of an inhibitor or competing ligand from its target. Regarding `COC(=O)CC1CCN(CCc2cn(CC(F)(F)F)c3ccccc23)CC1` [Compound 3-44], at hMOR (Table 3-3), the “SR: Selectivity Ratio (KiMOR/Kiα2A)” value came out at 0.76. Further, the Ki is 1480 ± 406 nM on hMOR (setting [1]), > 10000 nM at hKOR (setting [2]), > 10000 nM on hDOR (setting [3]) and 1940 ± 410 nM on α2A adrenergic receptor (setting [4]).
Regarding `CC[C@@H]1CN2CCc3c([nH]c4cccc(OC)c34)[C@@H]2C[C@@H]1/C(=C\OC)C(=O)NCc1ccccc1` [SUSM-560], the Ki is 5320 ± 800 nM at hMOR (setting [5]) and > 10000 nM at hDOR (setting [6]).
In the case of `COC(=O)C=C1CCN2CCC(O)(c3cccc(OC)c3)CC2C1` (centres unmarked) [drawing 179], the Ki was > 10000 nM on hMOR (setting [7]), > 10000 nM on hKOR (setting [8]), > 10000 nM at hDOR (setting [9]) and 37 ± 3 nM on α2A adrenergic receptor (setting [10]).
On to `COC(=O)CC1CCN(CC(=O)N2CCc3c(OC)cccc32)CC1` [Compound 3-46], for which the Ki on hMOR (setting [1]) was > 10000 nM; at hKOR (setting [2]) it was > 10000 nM; at hDOR (setting [3]), > 10000 nM; on α2A adrenergic receptor (setting [4]), 6370 ± 1160 nM.
Turning to `COC(=O)CC1CCN2CC=C(c3ccccc3OC)CC2C1` (centres unmarked), the Ki is > 10000 nM on hMOR (setting [7]), > 10000 nM on hKOR (setting [8]), > 10000 nM at hDOR (setting [9]) and 15 nM on α2A adrenergic receptor (setting [11]).
In the case of `COC(=O)CC1CCN2CCC(c3ccccc3OC)=CC2C1` (centres unmarked), the Ki on hMOR (setting [7]) was > 10000 nM; at hKOR (setting [8]), > 10000 nM; at hDOR (setting [9]), > 10000 nM; on α2A adrenergic receptor (setting [10]), 39 ± 3 nM.
For the molecule `COC=C(C(=O)OC)C1CCN(CCc2c[nH]c3cc(OC)ccc23)CC1` [Compound 3-39], the Ki on hMOR (Table 3-2, 3 independent experiments, read-out: Ki (nM ± SEM) MOR) is > 10000 nM; at hKOR (Table 3-2, 3 independent experiments, read-out: Ki (nM ± SEM) KOR), 9450 ± 2970 nM; at hDOR (Table 3-2, 3 independent experiments, read-out: Ki (nM ± SEM) DOR), > 10000 nM; on α2A adrenergic receptor (Ki (nM ± SEM) a2A-AR, Table 3-2, 3 independent experiments), > 10000 nM.
For `CC[C@@H]1CN2CCc3c([nH]c4cccc(OC)c34)[C@@H]2C[C@@H]1/C(=C\OC)C(=O)N(C)Cc1ccccc1` [SUSM-563, (E)-N-benzyl-2-((2S,3S,12bS)-3-ethyl-8-methoxy-1,2,3,4,6,7,12,12b-octahydroindolo[2,3-a]quinolizin-2-yl)-3-methoxy-N-methylacrylamide], the Ki was determined as 5750 ± 770 nM on hMOR (setting [5]) and 4520 ± 1990 nM on hDOR (setting [6]).
For the molecule `COC(=O)CC1CCN2CC=C(c3ccccc3)CC2C1` (centres unmarked), the Ki on hMOR (setting [7]) is 6980 ± 1450 nM; at hKOR (setting [8]), 957 ± 188 nM; on hDOR (setting [9]), > 10000 nM; at α2A adrenergic receptor (setting [11]), 7 ± 2 nM.
As for `COC=C(C(=O)OC)C1CCN(Cc2c[nH]c3ccccc23)CC1` [Compound 3-57], the Ki at hMOR (Table 3-5, 3 independent experiments, read-out: Ki (nM ± SEM) MOR) is > 10000 nM; at hKOR (Table 3-5, 3 independent experiments, read-out: Ki (nM ± SEM) KOR), > 10000 nM; at hDOR (Table 3-5, 3 independent experiments, read-out: Ki (nM ± SEM) DOR), > 10000 nM; at α2A adrenergic receptor (Ki (nM ± SEM) a2A-ar, Table 3-5, 3 independent experiments) it was 867 ± 370 nM.
In the case of `COC(=O)C=C1CCN2CCC(O)(c3ccccc3OC)CC2C1` (centres unmarked) [drawing 167], the Ki at hMOR (setting [7]) was > 10000 nM; on hKOR (setting [8]) it was > 10000 nM; at hDOR (setting [9]), 2940 ± 2550 nM; at α2A adrenergic receptor (setting [10]), 227 ± 37 nM.
Regarding `COC(=O)CC1CCN2CCC(O)(c3ccccc3)CC2C1` (centres unmarked) [SG-01-049], the Ki at hMOR (Table B2, mean ± SEM, 3 independent experiments, read-out: MOR Ki ± SEM) is 9810 ± 2860 nM; on α2A adrenergic receptor (Alpha2A Ki ± SEM (nM), Table B2, mean ± SEM, 3 independent experiments), 80 ± 19 nM.
As for `COCC(C(=O)OC)C1CCN(CCc2c[nH]c3ccccc23)CC1` (centres unmarked) [Compound 3-71], at hMOR (Table 3-6), the “SR: Selectivity Ratio (KiMOR/Kiα2A)” value stood at 2.02. Besides, the Ki was 5580 ± 1700 nM on hMOR (setting [12]); > 10000 nM on hKOR (setting [13]); > 10000 nM at hDOR (Ki (nM ± SEM) DOR, Table 3-6, 3 independent experiments); 2760 ± 281 nM on α2A adrenergic receptor (Ki (nM ± SEM) a2A-AR, Table 3-6, 3 independent experiments).
`COC(=O)CN1CCN(CCc2c[nH]c3cccc(OC)c23)CC1` [Compound 3-65]: the Ki on hMOR (setting [12]) was > 10000 nM; at hKOR (setting [13]) it was > 10000 nM; at hDOR (Table 3-6, 3 independent experiments, read-out: Ki (nM ± SEM) DOR) it was > 10000 nM; at α2A adrenergic receptor (Table 3-6, 3 independent experiments, read-out: Ki (nM ± SEM) a2A-AR), 265 ± 64.3 nM.
For `COC(=O)CC1CCN2CCC(c3ccccc3OC)CC2C1` (centres unmarked) [drawing 171], the Ki on hMOR (setting [7]) was > 10000 nM; at hKOR (setting [8]), > 10000 nM; on hDOR (setting [9]) it was > 10000 nM; at α2A adrenergic receptor (setting [11]), 24 ± 3 nM.
